Measurements reported in patent US9469615B2, “Quinoxalines and AZA-quinoxalines as CRTH2 receptor modulators” (Merck Sharp & Dohme Corp., priority 2010, dated 2016).

biological target: T1, hCRTH2 (Homo sapiens, UniProt Q9Y5Y4); assay: Radioligand binding assay ([3H]PGD2 competition, HEK-hCRTH2 membranes); conditions: [3H]PGD2 binding, rated A-E (Table A)
T1 construct: expressed in transfected cells; host or cells: HEK (human embryonic kidney) cells expressing hCRTH2; membrane preparation
T1 sequence (Q9Y5Y4 1-395): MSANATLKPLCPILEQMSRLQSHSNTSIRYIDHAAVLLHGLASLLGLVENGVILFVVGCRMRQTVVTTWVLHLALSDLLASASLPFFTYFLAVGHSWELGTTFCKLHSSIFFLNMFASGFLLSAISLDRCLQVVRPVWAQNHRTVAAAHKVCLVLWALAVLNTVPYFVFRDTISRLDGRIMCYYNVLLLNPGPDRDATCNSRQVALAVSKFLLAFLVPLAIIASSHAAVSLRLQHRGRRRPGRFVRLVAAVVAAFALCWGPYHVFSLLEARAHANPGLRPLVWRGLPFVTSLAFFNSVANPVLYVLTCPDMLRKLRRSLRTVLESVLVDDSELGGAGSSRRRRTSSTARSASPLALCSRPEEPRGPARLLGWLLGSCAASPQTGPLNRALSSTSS
Procedure, shortened: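 Competition against 3.0 nM [3H]PGD2 was run for 60 min at room temperature in pH 7.4 Tris-HCl buffer with EDTA, 2 mM MnCl2 and 1% DMSO, using 8-20 μg HEK-hCRTH2 membrane protein. 10 μM PGD2 set non-specific binding; filter-bound counts were read by scintillation.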

Structure (SMILES) | Ki
CC(CCCc1nc2cc(C(=O)NCc3ccc(F)cc3)ccc2nc1-c1ccc(F)cc1)C(=O)O (stereo not drawn) [compound 204, 3-(4-fluorophenyl)-7-[[[(4-fluorophenyl)methyl]amino]carbonyl]-alpha-methyl-2-quinoxalinepentanoic acid] | 2.1 to 20 nM
CC(CCCc1nc2cc(C(=O)N3CCC(c4ccccc4)CC3)ccc2nc1-c1ccc(F)cc1)C(=O)O (stereo not drawn) [compound 205, 3-(4-fluorophenyl)-alpha-methyl-7-[(4-phenyl-1-piperidinyl)carbonyl]-2-quinoxalinepentanoic acid] | 2.1 to 20 nM
CC(CCCc1nc2cc(C(=O)N3CCN(c4ccccc4)CC3)ccc2nc1-c1ccc(F)cc1)C(=O)O (stereo not drawn) [compound 206, 3-(4-fluorophenyl)-alpha-methyl-7-[(4-phenyl-1-piperazinyl)carbonyl]-2-quinoxalinepentanoic acid] | 2.1 to 20 nM
CC(CCCc1nc2cc(C(=O)NCc3ccc(C#N)cc3)ccc2nc1-c1ccc(F)cc1)C(=O)O (stereo not drawn) [compound 207, 7-[[[(4-cyanophenyl)methyl]amino]carbonyl]-3-(4-fluorophenyl)-alpha-methyl-2-quinoxalinepentanoic acid] | 2.1 to 20 nM
CC(CCCc1nc2cc(C(=O)N3CC(c4ccccc4)C3)ccc2nc1-c1ccc(F)cc1)C(=O)O (stereo not drawn) [compound 208, 3-(4-fluorophenyl)-alpha-methyl-7-[(3-phenyl-1-azetidinyl)carbonyl]-2-quinoxalinepentanoic acid] | 2.1 to 20 nM
CC(CCCc1nc2cc(C(=O)N[C@H](C)c3ccc(F)cc3)ccc2nc1-c1ccc(F)cc1)C(=O)O (stereo partly drawn) [compound 209, 3-(4-fluorophenyl)-7-[[[1(R)-(4-fluorophenyl)ethyl]amino]carbonyl]-alpha-methyl-2-quinoxalinepentanoic acid] | 2.1 to 20 nM
CC(CCCc1nc2cc(C(=O)N[C@@H](C)c3ccc(F)cc3)ccc2nc1-c1ccc(F)cc1)C(=O)O (stereo partly drawn) [compound 210, 3-(4-fluorophenyl)-7-[[[1(S)-(4-fluorophenyl)ethyl]amino]carbonyl]-alpha-methyl-2-quinoxalinepentanoic acid] | 2.1 to 20 nM
CC(CCCc1nc2cc(C(=O)N(C)Cc3cccc(F)c3)ccc2nc1-c1ccc(F)cc1)C(=O)O (stereo not drawn) [compound 211, 3-(4-fluorophenyl)-7-[[[(3-fluorophenyl)methyl]methylamino]carbonyl]-alpha-methyl-2-quinoxalinepentanoic acid] | 2.1 to 20 nM
CC(CCCc1nc2cc(C(=O)N(C)Cc3ccccc3)ccc2nc1-c1ccc(F)cc1)C(=O)O (stereo not drawn) [compound 212, 3-(4-fluorophenyl)-alpha-methyl-7-[[methyl(phenylmethyl)amino]carbonyl]-2-quinoxalinepentanoic acid] | 2.1 to 20 nM
CC(CCCc1nc2cc(C(=O)N[C@@H](CCO)c3ccccc3)ccc2nc1-c1ccc(F)cc1)C(=O)O (stereo partly drawn) [compound 213, 3-(4-fluorophenyl)-7-[[(3-hydroxy-1(S)-phenylpropyl)amino]carbonyl]-alpha-methyl-2-quinoxalinepentanoic acid] | 20.1 to 200 nM
C[C@@H](NC(=O)c1ccc2nc(-c3ccc(C#N)cc3)c(CCCCC(=O)O)nc2c1)c1ccc(F)cc1 [compound 215, 3-(4-cyanophenyl)-7-[[[1(R)-(4-fluorophenyl)ethyl]amino]carbonyl]-2-quinoxalinepentanoic acid] | 2.1 to 20 nM
CC(C)Oc1ccc(-c2nc3ccc(C(=O)N4CCC(c5ccccc5)CC4)cc3nc2CCCCC(=O)O)cc1 [compound 216, 3-[4-(1-methyl-ethoxy)phenyl]-7-[(4-phenyl-1-piperidinyl)carbonyl]-2-quinoxalinepentanoic acid] | 20.1 to 200 nM
O=C(O)CCCCc1nc2cc(C(=O)N[C@H]3CCCc4cc(Cl)ccc43)ccc2nc1-c1ccc(F)cc1 [compound 222, 7-[[(6-chloro-1,2,3,4-tetrahydro-1(S)-naphthalenyl)amino]carbonyl]-3-(4-fluorophenyl)-2-quinoxalinepentanoic acid] | 2.1 to 20 nM
O=C(O)CCCCc1nc2cc(C(=O)N[C@H](c3ccc(Cl)cc3)C(F)(F)F)ccc2nc1-c1ccc(F)cc1 [compound 228, 7-[[[1(R)-(4-chlorophenyl)-2,2,2-trifluoroethyl]amino]carbonyl]-3-(4-fluorophenyl)-2-quinoxalinepentanoic acid] | 0.1 to 2 nM
O=C(O)CCCCc1nc2cc(C(=O)N[C@@H]3CCc4ccccc43)ccc2nc1-c1ccc(F)cc1 [compound 229, 7-[[(2,3-dihydro-1H-inden-1(R)-yl)amino]carbonyl]-3 - (4-fluorophenyl)-2-quinoxalinepentanoic acid] | 0.1 to 2 nM
O=C(O)CCCCc1nc2cc(C(=O)N[C@H]3CCc4ccccc43)ccc2nc1-c1ccc(F)cc1 [compound 230, 7-[[(2,3-dihydro-1H-inden-1(S)-yl)amino]carbonyl]-3-(4-fluorophenyl)-2-quinoxalinepentanoic acid] | 0.1 to 2 nM
C[C@@H](NC(=O)c1ccc2nc(-c3ccccc3)c(CC[C@@H]3C[C@H]3C(=O)O)nc2c1)c1ccc(Cl)cc1 [compound 232, trans-2-[2-[7-[[[1(R)-(4-chlorophenyl)ethyl]amino]carbonyl]-3-phenyl-2-quinoxalinyl]ethyl] cyclopropanecarboxylic acid] | 2.1 to 20 nM
C[C@@H](NC(=O)c1ccc2nc(-c3ccccc3)c(CC[C@H]3C[C@@H]3C(=O)O)nc2c1)c1ccc(Cl)cc1 [compound 233, trans-2-[2-[7-[[[1(R)-(4-chlorophenyl)ethyl]amino]carbonyl]-3-phenyl-2-quinexalinyl]ethyl]cyclopropanecarboxylic acid] | 2.1 to 20 nM
C[C@@H](NC(=O)c1ccc2nc(-c3ccccc3)c(CCCCC(=O)O)nc2c1)c1ccc(F)cc1 [compound 234, 7-[[[1(R)-(4-fluorophenyl)ethyl]amino]carbonyl]-3-phenyl-2-quinoxalinepentanoic acid] | 2.1 to 20 nM

Next, values leading:

Ki | Structure (SMILES)
0.1 to 2 nM | COc1ccc(-c2nc3ccc(C(=O)N[C@H](C)c4ccc(F)cc4)cc3nc2CCCCC(=O)O)cc1 [compound 214, 7-[[[1(R)-(4-fluorophenyl)ethyl]amino]carbonyl]-3-(4-methoxyphenyl)-2-quinoxalinepentanoic acid]
0.1 to 2 nM | O=C(O)CCCCc1nc2cc(C(=O)N[C@@H]3CCCc4ccccc43)ccc2nc1-c1ccc(F)cc1 [compound 217, 3-(4-fluorophenyl)-7-[[(1,2,3,4-tetrahydro-1(R)-naphthalenyl)amino]carbonyl]-2-quinoxalinepentanoic acid]
0.1 to 2 nM | O=C(O)CCCCc1nc2cc(C(=O)N[C@H]3CCCc4ccccc43)ccc2nc1-c1ccc(F)cc1 [compound 218, 3-(4-fluorophenyl)-7-[[(1,2,3,4-tetrahydro-1(S)-naphthalenyl)amino]carbonyl]-2-quinoxalinepentanoic acid]
0.1 to 2 nM | O=C(O)CCCCc1nc2cc(C(=O)N[C@@H]3CCCc4cc(F)ccc43)ccc2nc1-c1ccc(F)cc1 [compound 219, 3-(4-fluorophenyl)-7-[[(6-fluoro-1,2,3,4-tetrahydro-1(R)-naphthalenyl)amino]carbonyl]-2-quinoxalinepentanoic acid]
0.1 to 2 nM | O=C(O)CCCCc1nc2cc(C(=O)N[C@H]3CCCc4cc(F)ccc43)ccc2nc1-c1ccc(F)cc1 [compound 220, 3-(4-fluorophenyl)-7-[[(6-fluoro-1,2,3,4-tetrahydro-1(S)-naphthalenyl)amino]carbonyl]-2-quinoxalinepentanoic acid]
0.1 to 2 nM | O=C(O)CCCCc1nc2cc(C(=O)N[C@@H]3CCCc4cc(Cl)ccc43)ccc2nc1-c1ccc(F)cc1 [compound 221, 7-[[(6-chloro-1,2,3,4-tetrahydro-1(R)-naphthalenyl)amino]carbonyl]-3-(4-fluorophenyl)-2-quinoxalinepentanoic acid]
0.1 to 2 nM | O=C(O)CCCCc1nc2cc(C(=O)N[C@@H]3CCc4cc(F)ccc43)ccc2nc1-c1ccc(F)cc1 [compound 223, 7-[[(5-fluoro-2,3-dihydro-1H-inden-1(R)-yl)amino]carbonyl]-3-(4-fluorophenyl)-2-quinoxalinepentanoic acid]
0.1 to 2 nM | O=C(O)CCCCc1nc2cc(C(=O)N[C@H]3CCc4cc(F)ccc43)ccc2nc1-c1ccc(F)cc1 [compound 224, 7-[[(5-fluoro-2,3-dihydro-1H-inden-1(5)-yl)amino]carbonyl]-3-(4-fluorophenyl)-2-quinoxalinepentanoic acid]
0.1 to 2 nM | O=C(O)CCCCc1nc2cc(C(=O)N[C@@H]3CCc4cc(Cl)ccc43)ccc2nc1-c1ccc(F)cc1 [compound 225, 7-[[(5-chloro-2,3-dihydro-1H-inden-1(R)-yl)amino]carbonyl]-3-(4-fluorophenyl)-2-quinoxalinepentanoic acid]
0.1 to 2 nM | O=C(O)CCCCc1nc2cc(C(=O)N[C@H]3CCc4cc(Cl)ccc43)ccc2nc1-c1ccc(F)cc1 [compound 226, 7-[[(5-chloro-2,3-dihydro-1H-inden-1(S)-yl)amino]carbonyl]-3-(4-fluorophenyl)-2-quinoxalinepentanic acid]
0.1 to 2 nM | O=C(O)CCCCc1nc2cc(C(=O)N[C@@H](c3ccc(Cl)cc3)C(F)(F)F)ccc2nc1-c1ccc(F)cc1 [compound 227, 7-[[[1(S)-(4-chlorophenyl)-2,2,2-trifluoroethyl]amino]carbonyl]-3-(4-fluorophenyl)-2-quinoxalinepentanoic acid]

same assay, conditions: [3H]PGD2 binding, values in text

Ki | Structure (SMILES)
1.2 nM | O=C(O)CCCCc1nc2cc(C(=O)N[C@@H]3CCCc4ccccc43)ccc2nc1-c1ccc(F)cc1 [compound 217, 3-(4-fluorophenyl)-7-[[(1,2,3,4-tetrahydro-1(R)-naphthalenyl)amino]carbonyl]-2-quinoxalinepentanoic acid]
